Data taken from paper PMC3706879, “The neurotrophic compound J147 reverses cognitive impairment in aged Alzheimer's disease mice” (Alzheimer's Research & Therapy, 2013).

Columns and labels:
[1] = system: BDNF; parameters: method as in PMID 22194796; details: normal rats; cited from earlier work
[2] = target: dopamine transporter (Homo sapiens, UniProt Q01959); experiment: dopamine transporter assay (MDS Pharma Services); format: binding
Method: All screening was done at 10 μM J147 by various contract research organizations (CROs), including MDS Pharma Services (King of Prussia, PA, USA), Ricerca, now Panlabs (Concord, OH, USA), Ambit (La Jolla, CA, USA), Caliper (Hopkinton, MA, USA) and NovaScreen Biosciences (Hanover, MD, USA) by standard protocols described in their catalogs.

[3] = system: neuroprotection assays; parameters: method as in PMID 22194796; details: cited from earlier work
[4] = body weights and food consumption of aged APPswe/PS1ΔE9 mice; format: in vivo; details: 20-month-old APPswe/PS1ΔE9 mice, 200 ppm (10 mg/kg/day) in food, three months, measured weekly
Method: (§1) The APPswe/PS1ΔE9 transgenic mice have been previously characterized. The line 85 mice carry two transgenes, the mouse/human chimeric APP/Swe, linked to Swedish FAD and human PS1ΔE9. At 20 months of age both male and female transgenic mice were fed a high fat diet (Harlan Tekland, Madison, WI, USA) with and without J147 (200 ppm, 10 mg/kg/day). Treatment continued for three months and was followed by behavior testing and sacrifice of mice for tissue harvesting. […] (Data not shown).

[5] = system: PC12 cells; experiment: neurite outgrowth of PC12 cells with HT22 growth conditioned medium; format: cell-based
Method: The HT22 cell line was used to make growth conditioned medium. HT22 is a nerve cell line derived from mouse brain and is widely used to study nerve cell physiology. To make HT22 growth conditioned medium, cells were grown in DMEM with 10% fetal calf serum. Then, semiconfluent cultures were washed three times with serum-free DMEM and cultured overnight in a reduced volume of DMEM in the presence or absence of 100 nM J147. The following day, the growth conditioned medium was collected and centrifuged at 10,000 × g to remove detached cells. To determine the effect of the conditioned medium on NGF-induced neurite outgrowth, PC12 cells were dissociated and plated on polyornithine-coated tissue culture dishes in the following conditions: 1) HT22 conditioned medium, 2) J147 treated HT22 conditioned medium, 3) DMEM alone plus J147, 4) DMEM plus NGF at 50 nanograms per ml, 5) J147 treated HT22 conditioned medium pre-incubated for one hour with 10 μg/ml anti-NGF and N2 supplement (Invitrogen). N2 supplement, which contains transferrin, was used in the presence of antibody to minimize the possibility that antibody protein non-specifically modified cell-substrate from adhesion and therefore neurite outgrowth. Phase contrast photographs were taken 24 hrs later.

[6] = target: CYP450 3A4 (Homo sapiens, UniProt P08684)
CYP450 3A4, sequence (P08684 whole entry): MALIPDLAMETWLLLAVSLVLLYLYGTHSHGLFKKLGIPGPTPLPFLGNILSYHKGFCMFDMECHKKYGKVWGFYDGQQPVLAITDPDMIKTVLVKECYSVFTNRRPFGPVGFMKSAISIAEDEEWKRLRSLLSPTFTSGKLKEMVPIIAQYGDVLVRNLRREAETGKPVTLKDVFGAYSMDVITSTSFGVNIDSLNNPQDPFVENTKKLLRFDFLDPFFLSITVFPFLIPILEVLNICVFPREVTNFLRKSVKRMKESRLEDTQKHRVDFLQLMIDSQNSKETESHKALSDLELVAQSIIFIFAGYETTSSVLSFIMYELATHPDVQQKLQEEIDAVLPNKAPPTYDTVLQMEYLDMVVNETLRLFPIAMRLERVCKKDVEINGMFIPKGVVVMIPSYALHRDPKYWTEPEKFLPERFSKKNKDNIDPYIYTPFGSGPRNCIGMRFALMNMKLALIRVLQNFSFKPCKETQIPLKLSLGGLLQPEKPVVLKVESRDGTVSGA

[7] = system: Rats; experiment: acute toxicity in rats (Absorption Systems); format: in vivo; details: 2 g/kg
Method: The pharmacokinetics of J147 in the mouse brain and plasma were evaluated using standard procedures. Blood and brain distribution of J147 following per oral (PO) administration was plotted for mice as a function of time (Figure 5). […] Additional de-risking and target identification screens were carried out at 10 μM J147 by various CROs (Table 2). […] All original data are available upon request.

[8] = system: mice; details: mouse, in vivo
[9] = system: BACE, APP, NGF, BDNF, Homer-1, Egr3, phosphorylated CREB; experiment: Western blotting of hippocampal or entorhinal cortex tissue of aged huAPP/PS1 mice; format: in vivo
Method: as §1
Hippocampal and entorhinal cortex tissue samples were homogenized in 10 volumes of RIPA lysis buffer (50 mM Tris, pH 7.5, 150 mM NaCl, 0.1% sodium dodecyl sulfate and 0.5% deoxycholate, and 1% NP40) containing a cocktail of protease and phosphatase inhibitors ([…] each of pepstatin A, aprotinin, phosphoramidon, and leupeptin; 0.5 mM 4-(2-aminoethyl) benzenesulfonyl fluoride hydrochloride; 1 mM EGTA; 5 mM fenvalerate; and 5 mM cantharidin). Samples were sonicated (2 × 10 s) and centrifuged at 100,000 × g for 60 minutes at 4°C. Protein concentrations in the cell extracts were determined using the BCA protein assay (Pierce supplied by Thermo Fisher Scientific, Rockford, IL, USA). Equal amounts of protein were solubilized in 2.5x SDS-sample buffer, separated on 12% SDS-polyacrylamide gels, transferred to Immobulin P and immunoblotted with the antibodies indicated in the Materials section. For Western blots, protein levels were normalized to actin levels. An unpaired t test was performed to compare between two groups at a single time point. When comparing multiple groups, one-way ANOVA followed by a Tukey's post hoc test was used. All statistical analysis was conducted using GraphPad Instat software.

[10] = system: Caco-2
[11] = system: mice; experiment: feeding throughout pregnancy to mice; format: in vivo; details: 10 mg/kg/day throughout pregnancy
[12] = system: huAPP/PS1 mice; experiment: elevated plus maze in aged huAPP/PS1 mice; format: in vivo; details: 200 ppm in food for three months
Method: as §1
The elevated plus maze analyzes the anxiety response of mice. This test relies upon the tendency of mice to have a fear of heights and to navigate towards dark enclosed spaces and remain there. Our maze is made of gray plastic and consists of four arms (two open without walls and two enclosed by 15.25 cm high walls) 30 cm long and 5 cm wide in the shape of a plus sign. The elevated plus maze is placed close to the center of the room, and has similar levels of illumination on both open and closed arms. A video-tracking system (Noldus EthoVision) is used to automatically collect behavioral data. […] Mice were then tested in the maze for a five-minute period while the software tracked and recorded the behavior of the mice. The anxiety of mice was measured by comparing the time spent in the open arms to time spent in the closed arms. […]

[13] = target: hERG (Homo sapiens, UniProt Q12809)
hERG, sequence (Q12809 whole entry): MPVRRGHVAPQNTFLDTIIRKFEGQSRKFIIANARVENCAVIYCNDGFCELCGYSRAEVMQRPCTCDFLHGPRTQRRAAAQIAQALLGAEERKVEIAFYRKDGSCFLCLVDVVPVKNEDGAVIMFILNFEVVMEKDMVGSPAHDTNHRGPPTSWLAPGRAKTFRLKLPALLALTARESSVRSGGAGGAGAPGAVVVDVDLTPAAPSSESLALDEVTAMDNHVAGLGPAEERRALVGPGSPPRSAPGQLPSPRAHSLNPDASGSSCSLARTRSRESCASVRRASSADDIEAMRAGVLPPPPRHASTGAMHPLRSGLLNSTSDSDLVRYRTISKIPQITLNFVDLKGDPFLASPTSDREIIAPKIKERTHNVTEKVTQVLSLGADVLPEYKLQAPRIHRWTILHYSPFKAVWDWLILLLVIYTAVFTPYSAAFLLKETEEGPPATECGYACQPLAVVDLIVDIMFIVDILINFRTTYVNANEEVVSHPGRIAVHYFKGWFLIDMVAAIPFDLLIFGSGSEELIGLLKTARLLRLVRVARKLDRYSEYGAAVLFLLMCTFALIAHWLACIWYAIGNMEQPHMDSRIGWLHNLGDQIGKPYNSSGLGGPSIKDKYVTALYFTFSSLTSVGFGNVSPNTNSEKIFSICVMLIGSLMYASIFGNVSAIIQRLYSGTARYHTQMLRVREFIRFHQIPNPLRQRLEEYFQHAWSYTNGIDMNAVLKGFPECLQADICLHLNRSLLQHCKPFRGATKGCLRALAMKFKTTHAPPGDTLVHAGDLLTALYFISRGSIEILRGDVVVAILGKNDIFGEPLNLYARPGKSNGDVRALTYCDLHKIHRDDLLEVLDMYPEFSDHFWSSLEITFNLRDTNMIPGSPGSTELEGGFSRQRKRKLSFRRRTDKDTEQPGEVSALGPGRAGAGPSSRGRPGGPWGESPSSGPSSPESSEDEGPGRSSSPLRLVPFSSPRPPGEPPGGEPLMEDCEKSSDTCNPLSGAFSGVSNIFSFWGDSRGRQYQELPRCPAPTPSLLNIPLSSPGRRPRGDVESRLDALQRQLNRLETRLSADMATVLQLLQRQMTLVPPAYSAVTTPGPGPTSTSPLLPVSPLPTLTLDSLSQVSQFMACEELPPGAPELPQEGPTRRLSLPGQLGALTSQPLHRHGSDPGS

[14] = system: MDRI-MDCK; details: MDCK-MDR1
[15] = hippocampus, vs control huAPP/PS1 mice

dopamine transporter, sequence (Q01959 whole entry): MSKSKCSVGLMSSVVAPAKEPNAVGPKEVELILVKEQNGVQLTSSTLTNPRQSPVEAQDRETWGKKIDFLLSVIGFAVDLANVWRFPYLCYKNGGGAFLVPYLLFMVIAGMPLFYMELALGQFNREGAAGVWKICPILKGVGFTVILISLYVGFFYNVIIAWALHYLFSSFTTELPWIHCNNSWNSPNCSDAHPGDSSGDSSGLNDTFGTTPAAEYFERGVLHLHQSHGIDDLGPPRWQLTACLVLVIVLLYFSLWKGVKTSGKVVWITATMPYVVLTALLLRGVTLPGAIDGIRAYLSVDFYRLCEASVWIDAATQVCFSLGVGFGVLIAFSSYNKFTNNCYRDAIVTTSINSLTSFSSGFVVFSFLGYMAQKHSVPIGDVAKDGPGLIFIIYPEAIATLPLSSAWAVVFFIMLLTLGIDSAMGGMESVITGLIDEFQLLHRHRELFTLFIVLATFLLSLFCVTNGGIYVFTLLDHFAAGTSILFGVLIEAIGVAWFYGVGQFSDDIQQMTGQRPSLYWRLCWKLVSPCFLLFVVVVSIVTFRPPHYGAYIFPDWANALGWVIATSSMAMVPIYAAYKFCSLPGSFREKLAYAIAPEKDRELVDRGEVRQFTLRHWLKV

In the case of `COc1cccc(/C=N/N(C(=O)C(F)(F)F)c2ccc(C)cc2C)c1` [J147, (E)-N-(2,4-dimethylphenyl)-2,2,2-trifluoro-N'-(3methoxybenzyli-dene) acetohydrazide], the “levels of BDNF in the hippocampus” value [1] is listed as “increases the levels of BDNF”, the “inhibition, dopamine transporter” value ([2]; 10 μM J147) is listed as “greater than 60%” and the EC50 ([2]; dose response, re-assay after screening) is listed as 649 nM. The EC50 [3] was under 100 nM, the “mouse body weights and food consumption” value [4] was “no significant differences between the groups” and the “neurite outgrowth, fresh DMEM plus J147” value ([5]; 100 nM J147 in fresh DMEM) was “did not”. For the same molecule, the “neurite outgrowth, conditioned medium from J147 treated HT22 cells” value ([5]; HT22 cells incubated overnight with 100 nM J147, 24 hrs) was “promoted neurite outgrowth”, the “CYP450 3A4 assays (CYP450 inhibition)” value [6] was “negative” and the acute toxicity [7] was “negative results”. The addiction [8] was “no addiction”, the “protein level of β-secretase (BACE)” value ([9]; RIPA soluble fraction, hippocampus, vs untreated AD mice) was “significantly reduced” and the “phosphorylated CREB” value ([9]; entorhinal cortex) was “significantly increased”. For the same molecule, the “mature BDNF protein level” value ([9]; hippocampus) was “increase”, the proBDNF protein level ([9]; hippocampus) was “increase” and the “ratio of pro- to mature BDNF” value ([9]; hippocampus) was “decreased”. The “ratio of proNGF to mature NGF” value ([9]; hippocampus) was “decreased significantly”, the Egr3 level ([9]; hippocampus, aged AD mice) was “significantly increased” and the Homer-1 levels ([9]; hippocampus, aged AD mice) was “significantly increased”. The “mature NGF level” value [9, 15] was “increases”, the proNGF level [9, 15] was “increases” and the APP protein levels ([9]; soluble fractions of hippocampus, vs control AD mice) was “significantly increased”. For the same molecule, the “penetration in the Caco-2 assay” value [10] was “moderate and symmetrical penetration”, the “offspring after feeding throughout pregnancy” value [11] was “normal” and the “disinhibition phenotype (time in the open arm)” value [12] was “completely rescued”. For the same molecule, the hERG assay [13] was “negative” and the “MDRI-MDCK brain transport rates classification (BBB penetration)” value [14] was “High”.
